How the values were obtained:
[1] = test system: differentiated Sol8 cells; experiment: Transfection of Sol8 muscle cells with GpLuc mRNA, luminescence of supernatant (Example 2); assay type: cell-based, C3H mouse; settings: small amounts of lipidoid added to PB83, GpLuc mRNA (SEQ ID NO: 12), 24 h post transfection
Description: Sol8 is a myogenic cell line isolated by Daubas et al. from primary cultures of soleus muscle taken from the leg of a normal C3H mouse. A volume of 0.2 mL Sol8 cells (20.000 cells) were seeded in 96 well glass bottom plates (Softwell Hydrogel coated with collagen, elasticity E=12 kPa) on day 1. After removing the medium from each well, 100 μL DMEM medium (with 2% horse serum) was added to each well. Afterwards, on day 2, Sol8 cells were transfected with 100 μL transfection mix (in triplicates) of polymer-lipidoid complexes prepared according to Example 1) and respective controls (in triplicates), and cells were incubated at 37° C. and 5% CO2 for 120 minutes. After incubation, 150 μL medium was exchanged with 150 μL fresh DMEM medium supplemented with 10% fetal calf serum. Twenty-four hours post transfection, i.e. on day 3, 10 μL of supernatant of each well was extracted and used for further luminescence analysis, which was performed as described below. […]
For luminescence analysis, a volume of 10 μL supernatant was transferred to a 96 well plate for GpLuc measurement. […] A volume of 100 μL coelenterazine working solution was used as a substrate for GpLuc and measured after 5 seconds in a commercially available microplate reader.

HepG2 cells = experiment: Transfection of HepG2 cells with GpLuc mRNA, luminescence of supernatant (Example 3); assay type: cell-based; settings: small amounts of lipidoid added to PB83, GpLuc mRNA, 24 h post transfection
Description: For luminescence analysis, a volume of 10 μL supernatant was transferred to a 96 well plate for GpLuc measurement. Then, coelenterazine working solution (100 μM) was prepared (1 mL coelenterazine stock solution (4.72 mM in EtOH) in 49 mL phosphate buffered saline supplemented with 5 mM NaCl, pH 7.2). A volume of 100 μL coelenterazine working solution was used as a substrate for GpLuc and measured after 5 seconds in a commercially available microplate reader.
The experiments were conducted as described in the previous Example, except that HepG2 cells were transfected instead of Sol8 cells. A volume of 0.2 mL HepG2 cells (10.000 cells) were seeded in a 96 well tissue culture plate. After removing the medium from each well, 100 μL RPMI 1640 medium (with 1% Penicillin and 1% Streptomycin, 1% L-Glutamin) was added to each well. Afterwards, HepG2 cells were transfected with 100 μL transfection mix (in triplicates) of polymer-lipidoid mRNA complexes and respective controls (in triplicates), and cells were incubated at 37° C. and 5% CO2 for 90 minutes. After incubation, 150 μL medium was exchanged with 150 μL fresh RPMI 1640 medium supplemented with 10% fetal calf serum. Twenty-four hours post transfection, 10 μL of supernatant of each well was extracted and used for further luminescence analysis.

| Compound | transfection efficiency (GpLuc luminescence) [1] | transfection efficiency (GpLuc luminescence) (HepG2 cells) |
| --- | --- | --- |
| CCCCCCCCCCC(O)CNCCN(CCNCC(O)CCCCCCCCCC)CCNCC(O)CCCCCCCCCC (centres unmarked) [3-C12-OH] | profound increase of transfection efficiency | profound increase of transfection efficiency |
| CCCCCCCCCCC(O)C[N+](C)(C)CCN(CC[N+](C)(C)CC(O)CCCCCCCCCC)CC[N+](C)(C)CC(O)CCCCCCCCCC (centres unmarked) [3-C12-OH-cat] | – | profound increase of transfection efficiency |
| CCCCCCCCCCCCNCCN(CCNCCCCCCCCCCCC)CCNCCCCCCCCCCCC [3-C12] | profound increase of transfection efficiency | profound increase of transfection efficiency |

Source: patent US11478552B2, “Hybrid carriers for nucleic acid cargo” (CureVac AG, priority 2016, dated 2022)
